US4517187A, “1,3,4,6,7-11b-Hexahydro-7-phenyl-2H-pyrazino[2,1-a]isoquinolines methods of preparation, and use as antidepressants” (Pennwalt Corporation, priority 1982, dated 1985)
Where a name gives a salt, the structure may show the parent alone.

Columns and labels:
[1] = biological target: T1, histamine-stimulated adenylate cyclase (Cavia porcellus, UniProt P47747); assay: in vitro inhibition of histamine-stimulated adenylate cyclase (ad. cyc H); assay type: biochemical; details: smaller numbers indicate greater potency, read-out: ad cyc H rating (molar concentration required to inhibit by 50% the stimulation of adenylate cyclase observed after treatment with histamine)
T1 construct: by the method developed by Kanof and Greengard; from tissue; host or cells: brain homogenate (guinea pig hippocampus/neocortex, inferred from the cited method)
T1 sequence (P47747 whole entry): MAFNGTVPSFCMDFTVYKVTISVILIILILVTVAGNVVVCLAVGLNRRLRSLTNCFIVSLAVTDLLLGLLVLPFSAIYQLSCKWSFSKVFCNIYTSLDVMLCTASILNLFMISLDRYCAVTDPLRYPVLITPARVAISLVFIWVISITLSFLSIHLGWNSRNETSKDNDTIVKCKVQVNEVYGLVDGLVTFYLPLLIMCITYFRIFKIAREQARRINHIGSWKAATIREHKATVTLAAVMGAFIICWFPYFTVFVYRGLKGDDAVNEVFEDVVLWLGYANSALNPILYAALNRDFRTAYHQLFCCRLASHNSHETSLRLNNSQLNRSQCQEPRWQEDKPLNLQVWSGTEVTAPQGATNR

[2] = biological target: binding of tritiated quinuclidinyl benzylate ([^3 H]-QNB) in brain; design: species or system rat; details: in vitro; brain homogenates; read-out: (^3 H)QNB rating (molar concentration required to inhibit by 50% the binding of [^3 H]QNB)
[3] = biological target: T2, specific binding of tritiated mepyramine ([^3 H]-mepyramine) in brain (Rattus norvegicus, UniProt P31390); assay: in vitro inhibition of the specific binding of [3H]-mepyramine in brain; details: brain homogenates, read-out: (^3 H)mepyramine rating (molar concentration required to inhibit by 50% the binding of [^3 H]mepyramine)
T2 construct: rate brain homogenates; from tissue; host or cells: rat brain homogenate
T2 sequence (P31390 whole entry): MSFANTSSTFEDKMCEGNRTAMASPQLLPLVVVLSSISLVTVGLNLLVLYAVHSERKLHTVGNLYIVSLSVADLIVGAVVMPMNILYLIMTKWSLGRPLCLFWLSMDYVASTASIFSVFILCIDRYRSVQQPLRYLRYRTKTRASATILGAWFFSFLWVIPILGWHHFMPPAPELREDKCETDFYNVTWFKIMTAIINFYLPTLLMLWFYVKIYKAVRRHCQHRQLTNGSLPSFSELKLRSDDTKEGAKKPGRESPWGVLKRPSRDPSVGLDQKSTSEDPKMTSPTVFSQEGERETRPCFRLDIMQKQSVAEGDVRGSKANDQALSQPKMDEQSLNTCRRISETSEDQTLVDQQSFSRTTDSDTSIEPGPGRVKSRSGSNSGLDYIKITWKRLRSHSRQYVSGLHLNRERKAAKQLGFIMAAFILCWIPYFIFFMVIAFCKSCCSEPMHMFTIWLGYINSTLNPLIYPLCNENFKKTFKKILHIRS

Row | SMILES | IC50 [1] | IC50 [2] | IC50 [3]
1 | CN1CCN2C[C@@H](c3ccccc3)c3ccccc3[C@@H]2C1 (relative stereo) [Example 1, cis-1,3,4,6,7,11b-Hexahydro-2-methyl-7-phenyl-2H-pyrazino[2,1-a]isoquinoline dihydrochloride] | 6800 nM | 250 nM | 20 nM
2 | CN1CCN2C[C@@H](c3ccccc3)c3ccccc3[C@H]2C1 (relative stereo) [Example 2, trans-1,3,4,6,7,11b-Hexahydro-2-methyl-7-phenyl-2H-pyrazino[2,1-a]isoquinoline dihydrochloride] | > 10000 nM | 3300 nM | > 1000 nM
3 | CCN1CCN2C[C@@H](c3ccccc3)c3ccccc3[C@@H]2C1 (relative stereo) [Example 3, cis-1,3,4,6,7,11b-Hexahydro-2-ethyl-7-phenyl-2H-pyrazino[2,1-a]isoquinoline dihydrochloride] | > 10000 nM | 1100 nM | 340 nM
4 | c1ccc([C@@H]2CN3CCNC[C@H]3c3ccccc32)cc1 (relative stereo) [Example 4, cis-1,3,4,6,7,11b-Hexahydro-7-phenyl-2H-pyrazino[2,1-a]isoquinoline dihydrochloride] | > 10000 nM | 920 nM | > 1000 nM
